Data reported in patent EP4703359A1 (Shanghai Simr Biotechnology Co., Ltd., priority 2023, dated 2024).
Counter-ions that a name gives are not always drawn. Like-named read-outs stand apart in the source and are kept apart here.

Key:
[1] = biological target: T1, α2-GABAA receptor (Homo sapiens, UniProt P18507+P47869); assay: Radioactive ligand (3H-flunitrazepam) competitive binding assay, BZD site of membrane proteins of α2-GABAAR-HEK293 cells; conditions: competition with 1 nM 3H-flunitrazepam; HEK293 membranes expressing α2, β3, γ2 subunits; Ki calculated from IC50; read-out: α2 Ki
T1 construct: expressed in transfected cells
Text: (§1) The α subunit, β subunit, and γ subunit are indispensable for forming a fully functional GABAA receptor. In this example, HEK293 cells stably expressing α2-GABAA receptors (α2-GABAAR) were constructed and screened respectively via liposome transfection (Felgner, P.L., et al. Proceedings of the National Academy of Sciences, 1987, 84: 7413-7417). The α2-GABAAR-HEK293 cell model co-expresses the α2 subunit (protein sequence referenced under GenBank accession number: NM_000807.4), β3 subunit (protein sequence referenced under GenBank accession number: NM_000814.5), and γ2 subunit (protein sequence referenced under GenBank accession number: NM_000816.3).
(§2) The above cell lines were subcultured. α2-GABAAR-HEK293 cells were amplified for testing the affinity of compounds to the benzodiazepine (BZD) site of GABAA receptors. Some of the α2-GABAAR-HEK293 cells in suspension during subculturing were plated on glass slides pre-treated with Poly-D-Lysine for electrophysiological testing (method reference: Patent CN 107344936 A, paragraph 0586).
The affinity of the compound for the α2-GABAA receptor was determined by competing with ^3H-flunitrazepam (isotope ^3H-labeled flunitrazepam) for binding to the BZD site of membrane proteins in HEK293 cells stably expressing human α2-GABAAR.
Membrane preparation: Cells were suspended in 50 mM Tris-HCl buffer (pH=7.4), homogenized on ice using a homogenizer for 20 seconds with 10 repetitions, and centrifuged at 4°C, 1000g for 10 minutes. The supernatant was collected, and the above steps were repeated. The supernatant was centrifuged at 4°C (33,800 × g; Thermo, rotor: A27-8x50) for 60 minutes, and the pellet was resuspended in Tris buffer (50 mM Tris-HCl, 10 mM MgCl2, 0.5 mM EDTA, 10% glycerol). The protein concentration was determined using the bicinchoninic acid (BCA) protein assay based on the copper ion reduction method (BCA kit purchased from Pierce (Annoron)). Aliquots of 1 mL were prepared and stored at -80°C.
Radioactive ligand competitive binding assay: This assay was conducted in a 200 µL system (96-well plate), containing 100 µL of cell membrane. The concentration of ^3H-flunitrazepam was 1 nM, and the concentration of the test compound ranged from […]. Flumazenil was used as a control. The low signal control well (Low Control, LC) was added with 1 µL of 2 mM flumazenil (final concentration 10 µM), while the high signal control well (High Control, HC) was added with 1 µL of dimethyl sulfoxide. The final concentration of the target membrane protein was 5 µg/well. All test compound stock solutions were prepared as 10 mM solutions in dimethyl sulfoxide. The working concentration of the samples was prepared by diluting all samples to 0.2 mM with dimethyl sulfoxide, followed by a 4-fold serial dilution to obtain a total of 8 concentration gradients. The 96-well plate was sealed with sealing film and then incubated on a shaker at room temperature for 1 hour. The GF/C filter plate was also soaked with a soaking buffer (0.3% PEI (polyethyleneimine, purchased from: Sigma-Aldrich, model: P314), stored at 4°C) for at least 0.5 hours. After the incubation was completed, the mixture was collected onto a GF/C filter plate using a cell harvester and washed four times with wash buffer (50 mM Tris-HCl, pH 7.4, stored at 4°C). After drying in a 50°C oven for 1 hour, the dried GF/C filter plate was sealed at the bottom with a film. The residual radioactivity on the filter membrane was detected using liquid scintillation counting. Each well was filled with 50 µL of scintillation fluid and sealed. Readings were taken using a Microbeta^2 (microplate counter, purchased from PerkinElmer, model: CNLL0153). The inhibitory activity of the test sample on the binding of ^3H-flunitrazepam to GABAA receptor membrane protein was calculated. […]

[2] = biological target: T1, α2-GABAA receptor; assay: Whole-cell patch-clamp electrophysiology, positive allosteric modulatory activity in α2-GABAAR-HEK293 cells; format: cell-based; conditions: for Emax at 0.1 µM: read-out: α2-GABAAR Positive allosteric modulatory activity
Text: as §1, §2
The positive modulatory activity of the test drug on the α2-GABAA receptor was assessed using electrophysiological methods. The specific approach is as follows:
With regards to the concentration of the compound, the final concentration of all compounds used in the screening was 100 nM. For cell lines expressing α2-GABAA receptors, the GABA concentration was 0.10 to 0.11 µM (approximately EC7-8). Electrophysiological experiments were conducted using the whole-cell patch-clamp technique, which can be referenced to the method reported in the literature (Nickolls, S. A., et al. *British Journal of Pharmacology*, 2018, 175: 708-725). The composition of the extracellular solution (ECS) for electrophysiology was as follows: 150 mM NaCl, 5 mM KCl, 2.5 mM CaCl2, 1 mM MgCl2, 10 mM HEPES, and 10 mM glucose (pH 7.4). The intracellular solution (ICS) for electrophysiology was formulated as follows: 140 mM CsCl, 11 mM EGTA, 10 mM HEPES, 2 mM CaCl2, 1 mM MgCl2, 4 mM MgATP, and 2 mM TEA (pH 7.3). GABA (γ-aminobutyric acid) powder was dissolved in pure water to prepare a stock solution, which was subsequently diluted in ECS. The compound was initially dissolved in dimethyl sulfoxide to prepare a 4 mM stock solution, followed by stepwise dilution into GABA-ECS at corresponding concentrations. All solutions were freshly prepared prior to electrophysiological testing.
Electrophysiological signals were acquired using an EPC 10 amplifier and PatchMaster software (HEKA) or an Axon 700B amplifier and Clampex software (AXON). The recording electrode was pulled from borosilicate glass, with an electrode resistance of 4 to 6 MΩ. Extracellular administration was performed using the ALA-VC-8PG™ system. A single independently growing cell was selected. After forming a tight seal between the glass electrode and the cell membrane, the membrane was ruptured to establish the whole-cell configuration. The cell membrane potential was clamped at -60 mV and recorded in Gap-free mode. During the test, extracellular fluid was first applied externally for approximately 20 seconds. After the baseline (Iprebaseline) was stabilized, the extracellular solution was switched to GABA-ECS. At this point, the current induced by GABA (Igaba) can be detected. After approximately 10 to 20 seconds, once the current had stabilized, the extracellular solution was switched to a mixture of the compound and GABA-ECS until the current induced by both the compound and GABA (Itreatment) could be detected. Finally, the solution was switched to extracellular fluid, and the recording was terminated after 20 to 40 seconds. Only cells with a stable baseline, an absolute control current magnitude (Igaba - Iprebaseline) greater than 40 pA, and a relatively stable current within 10 to 20 seconds were used for compound testing. […]

[3] = compound 100 nM, GABA 0.10 to 0.11 µM (approximately EC7-8), normalized to reference compound CVL-865 (= 100%)

Compound	Ki [1] [nM]	Emax at 0.1 µM [2, 3] [%]	Emax at 0.1 µM [2] [%]	α2-GABAAR Positive allosteric modulatory activity [2, 3] [%]
COc1cccc(F)c1-c1cccn2c(N)c(C(=O)NC3CCC3)nc12 [Example 7, 3-Amino-8-(2-fluoro-6-methoxyphenyl)-N-cyclobutylimidazo[1,2-a]pyridine-2-carboxamide]	14.9	52		
COc1cccc(F)c1-c1cccn2c(N)c(C(=O)NC3CC(F)(F)C3)nc12 [Example 9, 3-Amino-N-(3,3-difluorocyclobutyl)-8-(2-fluoro-6-methoxyphenyl)imidazo[1,2-a]pyridine-2-carboxamide]	93	52		
COc1cccc(F)c1-c1cccn2c(N)c(C(=O)NC3CCCC3)nc12 [Example 12, 3-Amino-N-cyclopentyl-8-(2-fluoro-6-methoxyphenyl)imidazo[1,2-a]pyridine-2-carboxamide]	34.1	32		
COc1cccc(F)c1-c1cccn2c(N)c(C(=O)Nc3ccccc3)nc12 [Example 13, 3-Amino-8-(2-fluoro-6-methoxyphenyl)-N-phenylimidazo[1,2-a]pyridine-2-carboxamide]	44	107		
COc1cccc(F)c1-c1cccn2c(N)c(C(=O)Nc3cc(C)on3)nc12 [Example 16, 3-Amino-8-(2-fluoro-6-methoxyphenyl)-N-(5-methylisoxazol-3-yl)imidazo[1,2-a]pyridine-2-carboxamide]	19.3	200		
COc1cccc(F)c1-c1cccn2c(N)c(C(=O)NCc3ccccc3)nc12 [Example 19, 3-Amino-N-benzyl-8-(2-fluoro-6-methoxyphenyl)imidazo[1,2-a]pyridine-2-carboxamide]	13.9	65		
CCCNC(=O)c1nc2c(-c3cccc(C(F)(F)F)c3)cccn2c1N [Example 47, 3-Amino-N-propyl-8-(3-(trifluoromethyl)phenyl)imidazo[1,2-a]pyridine-2-carboxamide]	35.2			
CCCNC(=O)c1nc2c(-c3cccc(Cl)c3F)cccn2c1N [Example 66, 3-Amino-8-(3-chloro-2-fluorophenyl)-N-propylimidazo[1,2-a]pyridine-2-carboxamide]	2.44			
CCCNC(=O)c1nc2c(CC(C)C)cccn2c1N [Example 143, 3-Amino-8-isobutyl-N-propylimidazo[1,2-a]pyridine-2-carboxamide hydrochloride]			48	
[2H]c1cc(-c2c(F)cccc2OC)c2nc(C(=O)NCCC)c(N)n2c1 [Example 154, 3-Amino-8-(2-fluoro-6-methoxyphenyl)-N-propylimidazo[1,2-a]pyridine-6-deuterio-2-carboxamide]				84
[2H]c1ccc(-c2c(F)cccc2OC)c2nc(C(=O)NCCC)c(N)n12 [Example 156, 3-amino-8-(2-fluoro-6-methoxyphenyl)-N-propylimidazo[1,2-a]pyridine-5-deuterium-2-carboxamide]				100

Continued, in another order:

Ki [1] [nM]	Emax at 0.1 µM [2, 3] [%]	Compound	Emax at 0.1 µM [2] [%]	α2-GABAAR Positive allosteric modulatory activity [2, 3] [%]
24	105	CCCNC(=O)c1nc2c(-c3c(F)cccc3OC)cccn2c1N [Example 3, 3-Amino-8-(2-fluoro-6-methoxyphenyl)-N-propylimidazo[1,2-a]pyridine-2-carboxamide]		
39	65	COc1cccc(F)c1-c1cccn2c(N)c(C(=O)NC3CC3)nc12 [Example 5, 3-Amino-8-(2-fluoro-6-methoxyphenyl)-N-cyclopropylimidazo[1,2-a]pyridine-2-carboxamide]		
24	57	COc1cccc(F)c1-c1cccn2c(N)c(C(=O)NCC3CC3)nc12 [Example 6, 3-Amino-N-(cyclopropylmethyl)-8-(2-fluoro-6-methoxyphenyl)imidazo[1,2-a]pyridine-2-carboxamide]		
11.9	66	COc1cccc(F)c1-c1cccn2c(N)c(C(=O)NC3CC(C)C3)nc12 (stereo not drawn) [Example 8, 3-Amino-8-(2-fluoro-6-methoxyphenyl)-N-(3-methylcyclobutyl)imidazo[1,2-a]pyridine-2-carboxamide]		
28.8	91	COc1cccc(F)c1-c1cccn2c(N)c(C(=O)NCCC(F)(F)F)nc12 [Example 25, 3-Amino-8-(2-fluoro-6-methoxyphenyl)-N-(3,3,3-trifluoropropyl)imidazo[1,2-a]pyridine-2-carboxamide]		
17.8	97	CCCCNC(=O)c1nc2c(-c3c(F)cccc3OC)cccn2c1N [Example 26, 3-Amino-8-(2-fluoro-6-methoxyphenyl)-N-butylimidazo[1,2-a]pyridine-2-carboxamide]		
32	84	COc1cccc(F)c1-c1cccn2c(N)c(C(=O)NCCCF)nc12 [Example 27, 3-Amino-8-(2-fluoro-6-methoxyphenyl)-N-(3-fluoropropyl)imidazo[1,2-a]pyridine-2-carboxamide]		
	85	[2H]c1ccn2c(N)c(C(=O)NCCC)nc2c1-c1c(F)cccc1OC [Example 150, 3-Amino-8-(2-fluoro-6-methoxyphenyl)-N-propylimidazo[1,2-a]pyridine-7-deuterio-2-carboxamide]		
	56	CCCNC(=O)c1nc2c(-c3c(F)cccc3OC)cc(F)cn2c1N [Example 155, 3-Amino-6-fluoro-8-(2-fluoro-6-methoxyphenyl)-N-propylimidazo[1,2-a]pyridine-2-carboxamide]		
